In patent publication US20240327427A1, “NEW COMPOUNDS FOR THE TREATMENT OF ALZHEIMER'S DISEASE” (Icahn School of Medicine at Mount Sinai, priority 2020, published 2024):
Entries after “also recorded” stand apart in the source; their conditions may differ.

Assays:
Type in all cases: cell-based, human
[1] = tested on: ATP6V1A; experiment: ATP6V1A gene expression-based compound screening (qRT-PCR) in hiPSC-derived NPCs; conditions: for ATP6V1A mRNA level / gene expression: hiPSC-derived NPCs, qRT-PCR vs DMSO
Source text: Thirty nine new compounds were synthesized by chemical synthesis and evaluated for their capability to elevate the mRNA level of ATP6V1A and the neuronal activities in hiPSC-derived NPCs. […] These disclosures indicate that the chemical structure to the right in LQ081-166 has a structure-activity relationship necessary for ATP6V1A activation.
To identify useful drugs for targeting this novel therapeutic target, the inventors synthesized 39 new compounds by chemical synthesis and evaluated their capability of elevating the mRNA level of ATP6V1A and neuronal activity in hiPSC-derived NPCs.
To improve the potency and efficacy of the drugs, an additional 18 derivatives based on LQ081-166 were synthesized (FIG. 7B). […] The inventors determined that the thioester and benzyl group in LQ081-166 has a structure-activity relationship necessary for ATP6V1A activation.
FIG. 7. ATP6V1A gene expression-based compounds screening. (A) qRT-PCR analysis (N=3-12) to determine the relative changes in ATP6V1A gene expression after exposure to 40 chemical compounds. ****, p<0.0001 (one-way ANOVA). DMSO serves as vehicle control. (B) Molecular modification of LQ081-166 and chemical structure of LQ108-32. (C) qRT-PCR analysis of relative ATP6V1A gene expression after exposure to LQ081-166 derivatives. Grey scale bars in the graph are associated with the categories of molecular modification. Note that LQ108-51/52/53 is a small pool of three LQ081-166 derivatives. (D) Effects of LQ081-166 at 0.3, 1, 3, and 10 μM on ATP6V1A mRNA level after 24-h exposure. *, p<0.05; **, p<0.01 (one-way ANOVA).
Quantitative reverse transcription PCR (qRT-PCR) was performed as previously described. […] Quantitative transcript analysis was performed using a QuantStudio 7 Flex Real-Time PCR System with the Power SYBR Green RNA-to-Ct Real-Time qPCR Kit (all Thermo Fisher Scientific). […]
A stock solution of LQ081-166 (molecular weight: 452.63) at 3 mM is prepared in dimethyl sulfoxide (DMSO). […] After 24-hour treatment, RNA was extracted from cells for quantitative PCR. […]

[2] = tested on: ATP6V1A; experiment: ATP6V1A mRNA expression in drug-treated NPCs (LINCS profiles); conditions: drug-treated vs DMSO-treated, LINCS data
Source text: Compounds were screened for drugs that can rescue the in vitro and in vivo phenotypes arising from ATP6V1A deficits. Using their drug repositioning tool, Ensemble of Multiple Drug Repositioning Approaches (EMUDRA) (Zhou et al., 2018b), the inventors matched the disease signature from the BM36-PHG region and the signatures of 3,629 drugs tested in the NPCs in the Library of Integrated Network-based Cellular Signatures (LINCS) project (FIG. 6A). The inventors further prioritized candidate drugs by their potential to increase the mRNA expression of ATP6V1A in the NPCs.
To identify existing drugs that can restore the molecular expression change in the LOAD brains, the inventors performed a drug repositioning analysis using EMUDRA, which provides a novel computational algorithm to match disease signatures and drug-induced signatures. The inventors downloaded drug-treated gene expression profiles (level 3 data of quantile-normalized and log 2 transformed expression levels from human iPSC-derived neural progenitor cells (NPCs) from the Library of Integrated Network-Based Cellular Signatures (LINCS) program. After removing probes sets mapping to multiple genes or without known gene annotation, the remaining data were adjusted for batch effects using linear regression. The mean expression level of multiple probe sets that match to the same gene was used as the expression level for that gene. For each drug, the applied drug signature was the transcriptome-wide expression difference between drug-treated and DMSO-treated gene expression profiles. The inventors matched each of the drug signatures to the LOAD signature using EMUDRA to find drugs that could reverse the LOAD signature. […] In total, 3,629 drug signatures were analyzed and ranked. The inventors further prioritized the top-ranked drugs that can increase ATP6V1A mRNA expression in the NPCs.

[3] = tested on: ATP6V1A; experiment: ATP6V1A mRNA (qRT-PCR) and protein (western blot) levels in hiPSC-derived NGN2 neurons (iNs); conditions: for transcriptional and translational levels of ATP6V1A: D21 iNs, concentrations between 1 and 30 μM
Procedure: To verify this discovery, the inventors measured the transcriptional and translational levels of ATP6V1A in D21 iNs treated with the 3 HDAC inhibitors at a series of concentrations between 1 and 30 μM.
CRISPR inhibition (CRISPRi) was used to repress endogenous ATP6V1A in hiPSC-derived NGN2 neurons. […] Next, the inventors investigated whether LQ081-166 rescued the phenotypes of ATP6V1A deficit and reduced neuronal activity.
Quantitative reverse transcription PCR (qRT-PCR) was performed as previously described. Specifically, cell cultures were harvested with Trizol and total RNA extraction was carried out following the manufacturer's instructions. Quantitative transcript analysis was performed using a QuantStudio 7 Flex Real-Time PCR System with the Power SYBR Green RNA-to-Ct Real-Time qPCR Kit (all Thermo Fisher Scientific). Total RNA template (25 ng per reaction) was added to the PCR mix, including primers listed below. qPCR conditions were as follows; 48° C. for 30 min, 95° C. for 10 min followed by 40 cycles (95° C. for 15 s, 60° C. for 60 s). All qPCR data is collected from at least 3 independent biological replicates of one experiment. Data analyses were performed using GraphPad PRISM 6 software.
Cells were rinsed with ice-cold phosphate-buffered saline (PBS), pelleted, and lyzed in RIPA Lysis and Extraction Buffer (Thermo Fisher Scientific, #89900) containing Halt™ Protease and Phosphatase Inhibitor Cocktail (Thermo Fisher Scientific, #78440). Alternatively, MSBB BM36 brain samples were homogenized with similar methods. Samples were sonicated for 1 minute then centrifuged at 13,000× rpm for 10 min. The supernatant was collected, and total protein concentration was determined using Quick Start™ Bradford Protein Assay (Bio-Rad, 5000201) following the manufacturer's instructions.
Images were captured and quantified using the Odyssey® Imaging Systems (LI-COR. Inc.).
(§1) A stock solution of LQ081-166 (molecular weight: 452.63) at 3 mM is prepared in dimethyl sulfoxide (DMSO). Once prepared, aliquot the stock solution into 100 μL amounts and store at −80° C. Avoid repeated freeze-thaw cycles. The stock is diluted 1000× into neuronal medium to obtain 3 μM for assays. After 24-hour treatment, RNA was extracted from cells for quantitative PCR. In the MEA assay, LQ081-166 was added on neuronal differentiation day 14. Replace with medium containing drug or vehicle every 2-3 days until the final recording day.

[4] = tested on: hiPSC-derived NGN2 neurons; experiment: Multi-electrode array (MEA) neuronal activity
Procedure: To evaluate electrical activity of NGN2-neurons by MEA, density-matched isogenic NGN2-neuronal populations, co-cultured with pHAs, were prepared as described above. Specifically, at day 3, pHAs were split as 17,000 cells/well in a Matrigel-coated 48W MEA plate (Axion Biosystems, M768-tMEA-48W) and maintained as above. At day 7, NGN2-neurons were detached, spun down and seeded on the pHA culture. Outer space of each well in the plate was filled up with autoclaved/deionized water to minimize the evaporation of marginal wells (“edge effect”) during long-term culture. Half volume of neuronal medium (supplemented with 2% FBS) was replaced with fresh medium including 200 nM Ara-C from day 9 until the end of MEA recording. Electrical activity of neurons was recorded daily during day 14-24. On the recording day, the plate was loaded into the Axion Maestro MEA reader (Axion Biosystems). Recording was performed via AxiS 2.4 for 10 mins. Quantitative analysis of the recording was exported as a Microsoft excel sheet. Data were analyzed using GraphPad PRISM 6 software.
as §1

SMILES	ATP6V1A (log2FC) [2]	further results
O=C(CCCCCCC(=O)SCCc1ccccc1)Nc1nc(-c2ccccc2)cs1 [LQ108-32, S-phenethyl 8-oxo-8-((4-phenylthiazol-2-yl)amino)octanethioate]	–	ATP6V1A mRNA level / gene expression ([1]; listed as LQ081-32): did not affect; also recorded: inability to affect
CC1CC(C)C(=O)C(C(O)CC2CC(=O)NC(=O)C2)C1 (stereo not shown) [BRD-A62184259]	1.46 log2FC	–
O=C(CCCCCN1C(=O)c2cccc3cccc(c23)C1=O)NO [scriptaid]	0.78 log2FC	–
O=C(CCCCCCC(=O)Nc1ccccc1)NO [SAHA]	0.77 log2FC	transcriptional and translational levels of ATP6V1A [3]: ineffective
O=C(CCCCCCSC(=O)CCc1ccccc1)Nc1nc(-c2ccccc2)cs1 [LQ081-166, S-(7-oxo-7-((4-phenylthiazol-2-yl)amino)heptyl) 3-phenylpropanethioate]	–	ATP6V1A mRNA level ([3]; ATP6V1A KD hiPSC-derived NGN2 neurons): restores ATP6V1A mRNA level; ATP6V1A mRNA level ([3]; NGN2 neurons, 3 μM, 24 hours): significantly increased; restoration of neuronal activity (MEA) ([4]; ATP6V1A KD neurons, regardless of presence/absence of Aβ exposure, 3 μM): partially restoring neuronal activity; neuronal activity (MEA) ([4]; NGN2 neurons, 3 μM LQ081-166): potent activator of neuronal activity; dose dependence of effect on ATP6V1A mRNA level ([1]; 0.3, 1, 3 and 10 μM, 24-h exposure): dose-dependent effect; ATP6V1A mRNA level / gene expression [1]: most significantly increased
CC[C@H]1CN2CCc3cc(OC)c(OC)cc3C2C[C@@H]1CC1NCCc2cc(OC)c(OC)cc21 (stereo partly shown) [BRD-A25687296]	2.37 log2FC	–
CCC(=O)CCCCC[C@@H]1NC(=O)[C@H]2CCCCN2C(=O)[C@H]([C@@H](C)CC)NC(=O)[C@H](Cc2cn(OC)c3ccccc23)NC1=O [apicidin]	0.99 log2FC	–
C[C@@H]1C[C@@H]([C@H](O)CC2CC(=O)NC(=O)C2)C(=O)[C@@H](C)C1 [BRD-K36055864]	2.00 log2FC	–
C[C@@H]1O[C@@H](O[C@@H]2C=C3CCC4C(CC[C@]5(C)[C@@H](c6ccc(=O)oc6)CC[C@]45O)[C@@]3(C)CC2)[C@H](O)[C@H](O)[C@H]1O (stereo partly shown) [BRD-A34806832]	1.49 log2FC	–
C[C@@H]1CN([C@@H](C)CO)C(=O)c2cccc(NC(=O)c3ccc(-c4nccs4)cc3)c2O[C@@H]1CN(C)Cc1ccc(C(=O)Nc2ccccc2N)cc1 [BRD-K56196992]	1.47 log2FC	–
Nc1ccccc1NC(=O)c1ccc(CNC(=O)OCc2cccnc2)cc1 [MS-275]	–	transcriptional and translational levels of ATP6V1A [3]: ineffective
CN(C)c1ccc(C(=O)NCCCCCCC(=O)NO)cc1 [m-344]	0.84 log2FC	–
C[C@]12CC[C@H]3[C@@H](CC[C@]4(O)C[C@@H](O)CC[C@]34C=O)[C@@]1(O)CC[C@@H]2C1=CC(=O)OC1 [BRD-K84595254]	2.98 log2FC	–
CC(/C=C/C(=O)NO)=C\[C@@H](C)C(=O)c1ccc(N(C)C)cc1 [trichostatin a]	0.61 log2FC	–
Nc1ccccc1NC(=O)c1ccc(CNC(=O)OCc2cccnc2)cc1 [BRD-K77908580]	1.54 log2FC	–
CC[C@H]1CN2CCc3cc(OC)c(OC)cc3[C@@H]2C[C@@H]1C[C@H]1NCCc2cc(O)c(OC)cc21 [BRD-K80348542]	1.09 log2FC	–
